From ChEMBL document CHEMBL1201862, “PubChem BioAssay data set” (2004)
One block for each compound: values may come before it. Calls of active or inactive are those of the source.

Experiments:
[1] = biological target: T1, Polyadenylate-binding protein 1 (Homo sapiens, UniProt P11940); assay: MLLE domain peptide-binding blockers, IC50 – biochemical, fluorescence polarization, FITC-PAM2 peptide, dose response (AID 602259); type: functional; settings: read-out: IC50_Mean
[2] = biological target: Ras and Rab interactor 1/Tyrosine-protein kinase ABL1 (Homo sapiens, UniProt P00519+Q13671); type: functional;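 further: biochemical TR-FRET dose-response test measuring inhibition of binding between Rin1 and Abl proteins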
Ras and Rab interactor 1/Tyrosine-protein kinase ABL1, sequence (P00519 whole entry): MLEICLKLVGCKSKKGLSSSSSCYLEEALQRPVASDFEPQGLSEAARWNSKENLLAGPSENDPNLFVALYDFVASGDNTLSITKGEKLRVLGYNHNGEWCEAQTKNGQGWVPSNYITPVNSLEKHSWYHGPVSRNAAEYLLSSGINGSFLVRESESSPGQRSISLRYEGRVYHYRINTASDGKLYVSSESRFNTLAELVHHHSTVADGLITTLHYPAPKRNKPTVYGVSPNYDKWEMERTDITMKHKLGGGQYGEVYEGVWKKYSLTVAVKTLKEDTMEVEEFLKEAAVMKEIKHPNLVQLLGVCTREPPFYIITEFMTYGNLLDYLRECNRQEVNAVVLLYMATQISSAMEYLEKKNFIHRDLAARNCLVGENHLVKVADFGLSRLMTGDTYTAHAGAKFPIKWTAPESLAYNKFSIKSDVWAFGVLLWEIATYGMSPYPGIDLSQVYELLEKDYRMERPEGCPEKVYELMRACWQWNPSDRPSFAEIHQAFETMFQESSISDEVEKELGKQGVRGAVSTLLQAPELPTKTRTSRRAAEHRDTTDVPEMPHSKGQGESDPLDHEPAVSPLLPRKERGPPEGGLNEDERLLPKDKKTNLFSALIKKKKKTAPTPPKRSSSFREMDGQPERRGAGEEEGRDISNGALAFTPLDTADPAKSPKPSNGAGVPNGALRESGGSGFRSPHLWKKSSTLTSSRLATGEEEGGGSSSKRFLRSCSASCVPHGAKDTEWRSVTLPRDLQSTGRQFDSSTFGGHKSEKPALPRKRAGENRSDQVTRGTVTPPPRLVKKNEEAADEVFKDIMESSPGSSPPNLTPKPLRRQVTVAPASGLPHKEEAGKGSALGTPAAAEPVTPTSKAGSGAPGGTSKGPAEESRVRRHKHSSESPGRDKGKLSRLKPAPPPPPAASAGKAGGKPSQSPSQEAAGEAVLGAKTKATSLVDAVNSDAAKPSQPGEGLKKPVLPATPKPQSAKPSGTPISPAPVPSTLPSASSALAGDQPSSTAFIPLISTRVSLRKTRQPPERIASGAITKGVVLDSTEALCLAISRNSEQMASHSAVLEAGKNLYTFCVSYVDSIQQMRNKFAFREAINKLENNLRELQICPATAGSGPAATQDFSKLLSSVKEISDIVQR
Ras and Rab interactor 1/Tyrosine-protein kinase ABL1, sequence (Q13671 whole entry): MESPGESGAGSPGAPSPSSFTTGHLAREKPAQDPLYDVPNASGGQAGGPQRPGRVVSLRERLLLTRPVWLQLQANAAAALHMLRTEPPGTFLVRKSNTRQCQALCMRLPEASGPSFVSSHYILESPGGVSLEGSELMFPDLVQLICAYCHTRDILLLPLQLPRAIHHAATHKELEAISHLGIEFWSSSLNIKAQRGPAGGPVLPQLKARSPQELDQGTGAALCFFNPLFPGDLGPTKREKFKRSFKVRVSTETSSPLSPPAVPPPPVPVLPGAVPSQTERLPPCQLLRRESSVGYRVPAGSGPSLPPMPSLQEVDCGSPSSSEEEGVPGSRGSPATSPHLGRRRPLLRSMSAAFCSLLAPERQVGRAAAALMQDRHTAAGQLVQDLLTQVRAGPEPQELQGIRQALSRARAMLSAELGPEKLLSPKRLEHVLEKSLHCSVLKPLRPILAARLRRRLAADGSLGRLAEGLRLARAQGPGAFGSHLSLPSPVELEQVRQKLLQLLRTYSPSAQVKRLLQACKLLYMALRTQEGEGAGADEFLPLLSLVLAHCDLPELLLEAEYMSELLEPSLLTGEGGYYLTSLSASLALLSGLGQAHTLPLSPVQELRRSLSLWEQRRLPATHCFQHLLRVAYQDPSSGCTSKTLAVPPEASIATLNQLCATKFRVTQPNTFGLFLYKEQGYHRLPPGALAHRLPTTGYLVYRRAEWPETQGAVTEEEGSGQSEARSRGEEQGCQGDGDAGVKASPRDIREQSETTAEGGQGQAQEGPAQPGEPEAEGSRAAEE

[3] = biological target: T1, Polyadenylate-binding protein 1; assay: MLLE binding blockers, Cy5 peptide tracer – biochemical, fluorescence polarization, Cy5-PAM2 peptide, secondary, miRNA deadenylation inhibitor project, dose response (AID 602260); type: functional; settings: read-out: IC50_Mean
[4] = biological target: T2, Oxysterols receptor LXR-beta (Homo sapiens, UniProt P55055); type: functional, cell-based;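 further: agonist activity at LXR measured by a cell-based luminescence readout across a dose range, run as a counterscreen for daf-12 agonists; HEK293 cells with Gal4-LXR fusion and GAL4-driven luciferase reporter; potency for activation of Gal4-LXR reporter so compounds are agonists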
T2 sequence (P55055 whole entry): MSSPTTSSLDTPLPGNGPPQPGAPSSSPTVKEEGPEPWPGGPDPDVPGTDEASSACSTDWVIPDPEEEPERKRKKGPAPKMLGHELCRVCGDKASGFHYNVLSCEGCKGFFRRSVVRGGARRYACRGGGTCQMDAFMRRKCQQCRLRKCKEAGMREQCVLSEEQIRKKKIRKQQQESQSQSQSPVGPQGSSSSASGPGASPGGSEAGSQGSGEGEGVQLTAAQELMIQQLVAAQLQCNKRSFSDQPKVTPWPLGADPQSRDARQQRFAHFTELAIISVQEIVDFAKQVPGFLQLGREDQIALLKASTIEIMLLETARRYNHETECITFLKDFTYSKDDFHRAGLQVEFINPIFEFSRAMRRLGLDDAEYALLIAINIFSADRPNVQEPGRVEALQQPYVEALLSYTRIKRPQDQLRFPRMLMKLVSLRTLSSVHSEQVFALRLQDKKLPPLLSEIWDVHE

[5] = biological target: Dual specificity protein phosphatase 3 (Homo sapiens, UniProt P51452); assay: VHR phosphatase inhibition, dose response, selectivity assay for STEP inhibitor project, biochemical (AID 602374); type: functional; settings: read-out: IC50_Mean
Dual specificity protein phosphatase 3, sequence (P51452 whole entry): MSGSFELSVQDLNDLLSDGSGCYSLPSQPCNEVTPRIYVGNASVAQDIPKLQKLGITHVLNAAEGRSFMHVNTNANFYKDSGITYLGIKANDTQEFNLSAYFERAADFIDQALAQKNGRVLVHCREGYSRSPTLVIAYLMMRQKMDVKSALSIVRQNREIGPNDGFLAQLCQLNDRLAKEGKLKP

[6] = biological target: Tyrosine-protein phosphatase non-receptor type 5 (Homo sapiens, UniProt P54829); assay: PTPN5 enzyme inhibition – biochemical, fluorescence intensity, uHTS hits, confirmation (AID 602372); type: functional; settings: read-out: IC50_Mean
Tyrosine-protein phosphatase non-receptor type 5, sequence (P54829 whole entry): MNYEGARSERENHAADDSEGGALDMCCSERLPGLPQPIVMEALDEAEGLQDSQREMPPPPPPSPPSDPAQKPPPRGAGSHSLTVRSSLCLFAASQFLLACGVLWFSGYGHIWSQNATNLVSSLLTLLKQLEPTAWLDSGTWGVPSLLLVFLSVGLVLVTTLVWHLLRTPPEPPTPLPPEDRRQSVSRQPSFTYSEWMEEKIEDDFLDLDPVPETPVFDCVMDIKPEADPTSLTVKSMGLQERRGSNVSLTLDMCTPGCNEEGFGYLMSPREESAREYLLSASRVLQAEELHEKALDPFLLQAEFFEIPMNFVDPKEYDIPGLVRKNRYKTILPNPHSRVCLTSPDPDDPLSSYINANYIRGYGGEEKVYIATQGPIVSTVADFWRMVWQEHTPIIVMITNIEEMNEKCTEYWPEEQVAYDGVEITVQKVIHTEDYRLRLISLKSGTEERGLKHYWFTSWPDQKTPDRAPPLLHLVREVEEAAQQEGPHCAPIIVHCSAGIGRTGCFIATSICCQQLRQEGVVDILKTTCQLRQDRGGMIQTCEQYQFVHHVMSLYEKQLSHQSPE

Protein skinhead-1 = biological target: T3, Protein skinhead-1 (Caenorhabditis elegans, UniProt P34707); type: functional
T3 sequence (P34707 whole entry): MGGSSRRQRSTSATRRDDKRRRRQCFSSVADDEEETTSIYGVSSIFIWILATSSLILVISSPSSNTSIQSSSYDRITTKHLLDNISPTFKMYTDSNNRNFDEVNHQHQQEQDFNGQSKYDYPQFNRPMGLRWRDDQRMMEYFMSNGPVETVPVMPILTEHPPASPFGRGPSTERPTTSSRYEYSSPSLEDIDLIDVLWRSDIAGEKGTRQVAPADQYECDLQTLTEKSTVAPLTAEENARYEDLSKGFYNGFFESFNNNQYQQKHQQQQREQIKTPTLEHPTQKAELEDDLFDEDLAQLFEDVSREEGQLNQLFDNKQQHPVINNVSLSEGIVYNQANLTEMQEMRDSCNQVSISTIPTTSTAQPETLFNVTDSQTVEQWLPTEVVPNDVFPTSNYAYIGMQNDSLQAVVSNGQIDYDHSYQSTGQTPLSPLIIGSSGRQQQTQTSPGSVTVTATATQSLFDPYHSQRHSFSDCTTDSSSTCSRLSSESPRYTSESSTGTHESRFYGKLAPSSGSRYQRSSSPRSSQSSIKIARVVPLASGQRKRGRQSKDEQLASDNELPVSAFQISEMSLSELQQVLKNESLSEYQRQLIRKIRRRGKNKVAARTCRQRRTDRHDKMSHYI

[7] = biological target: Tyrosine-protein phosphatase non-receptor type 11 (Homo sapiens, UniProt Q06124); assay: PTPN11 enzyme inhibitors – biochemical, selectivity assay for STEP inhibitor project, dose response (AID 602367); type: functional; settings: read-out: IC50_Mean
[8] = biological target: T4, Nuclear receptor subfamily 0 group B member 1 (Homo sapiens, UniProt P51843); type: functional, cell-based;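 further: HEK293T cells transfected with SF-1 and DAX-1 plus StAR promoter luciferase reporter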
T4 sequence (P51843 whole entry): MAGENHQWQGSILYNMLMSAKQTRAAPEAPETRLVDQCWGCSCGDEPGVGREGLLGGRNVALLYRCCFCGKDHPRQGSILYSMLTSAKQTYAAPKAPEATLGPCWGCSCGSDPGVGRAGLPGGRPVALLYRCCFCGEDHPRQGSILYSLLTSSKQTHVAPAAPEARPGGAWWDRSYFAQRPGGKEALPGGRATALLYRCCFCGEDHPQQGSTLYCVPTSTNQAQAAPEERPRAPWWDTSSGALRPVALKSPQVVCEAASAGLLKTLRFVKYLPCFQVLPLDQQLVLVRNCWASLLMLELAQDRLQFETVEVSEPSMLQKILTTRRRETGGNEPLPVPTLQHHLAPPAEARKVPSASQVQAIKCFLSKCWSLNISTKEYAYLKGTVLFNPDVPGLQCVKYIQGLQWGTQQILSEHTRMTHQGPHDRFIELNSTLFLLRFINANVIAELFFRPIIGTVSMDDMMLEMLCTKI

cells = type: functional, cell-based
Genome polyprotein = Genome polyprotein (dengue virus type 2, UniProt P29990); assay: flavivirus cap methylation enzyme inhibition – biochemical, confirmation dose response, primary screen (AID 588689); type: functional
[9] = biological target: DNA (cytosine-5)-methyltransferase 1 (Homo sapiens, UniProt P26358); assay: inhibition of DNA methylation by DNMT1 – biochemical, fluorescent molecular beacon, confirmation (AID 602386); type: functional
[10] = viability loss in THP-1 monocytes – THP-1 cells, cytotoxicity control for Vif-APOBEC3G degradation inhibitor project, dose response (AID 1117359); type: functional; settings: THP-1
Aurora kinase A = biological target: T5, Aurora kinase A (Homo sapiens, UniProt O14965); type: functional;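 further: value from the Navigating the Kinome kinase panel profiling, panel entry STK6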
T5 sequence (O14965 whole entry): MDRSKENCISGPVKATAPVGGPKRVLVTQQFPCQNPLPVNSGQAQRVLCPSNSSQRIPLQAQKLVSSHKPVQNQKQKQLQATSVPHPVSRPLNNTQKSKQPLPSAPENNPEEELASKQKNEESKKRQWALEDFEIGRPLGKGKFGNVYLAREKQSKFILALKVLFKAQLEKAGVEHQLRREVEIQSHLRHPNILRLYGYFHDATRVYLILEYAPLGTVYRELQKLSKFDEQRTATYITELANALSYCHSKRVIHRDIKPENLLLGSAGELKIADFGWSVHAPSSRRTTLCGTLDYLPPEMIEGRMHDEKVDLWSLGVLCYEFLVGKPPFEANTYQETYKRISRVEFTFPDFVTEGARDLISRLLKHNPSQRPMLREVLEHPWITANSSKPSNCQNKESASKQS

Aurora kinase B = Aurora kinase B (Homo sapiens, UniProt Q96GD4); type: functional
Aurora kinase B, sequence (Q96GD4 whole entry): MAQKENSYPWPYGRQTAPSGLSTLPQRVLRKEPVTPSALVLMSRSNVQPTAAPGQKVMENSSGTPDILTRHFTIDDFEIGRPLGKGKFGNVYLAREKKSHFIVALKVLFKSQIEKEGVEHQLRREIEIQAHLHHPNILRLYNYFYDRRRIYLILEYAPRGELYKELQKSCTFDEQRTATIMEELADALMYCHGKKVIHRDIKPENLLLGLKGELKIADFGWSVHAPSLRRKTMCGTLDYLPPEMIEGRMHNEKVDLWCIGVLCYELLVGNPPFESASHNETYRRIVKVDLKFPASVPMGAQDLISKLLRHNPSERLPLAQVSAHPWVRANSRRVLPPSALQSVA

[11] = biological target: Vascular endothelial growth factor receptor 2 (Homo sapiens, UniProt P35968); type: functional
Vascular endothelial growth factor receptor 2, sequence (P35968 whole entry): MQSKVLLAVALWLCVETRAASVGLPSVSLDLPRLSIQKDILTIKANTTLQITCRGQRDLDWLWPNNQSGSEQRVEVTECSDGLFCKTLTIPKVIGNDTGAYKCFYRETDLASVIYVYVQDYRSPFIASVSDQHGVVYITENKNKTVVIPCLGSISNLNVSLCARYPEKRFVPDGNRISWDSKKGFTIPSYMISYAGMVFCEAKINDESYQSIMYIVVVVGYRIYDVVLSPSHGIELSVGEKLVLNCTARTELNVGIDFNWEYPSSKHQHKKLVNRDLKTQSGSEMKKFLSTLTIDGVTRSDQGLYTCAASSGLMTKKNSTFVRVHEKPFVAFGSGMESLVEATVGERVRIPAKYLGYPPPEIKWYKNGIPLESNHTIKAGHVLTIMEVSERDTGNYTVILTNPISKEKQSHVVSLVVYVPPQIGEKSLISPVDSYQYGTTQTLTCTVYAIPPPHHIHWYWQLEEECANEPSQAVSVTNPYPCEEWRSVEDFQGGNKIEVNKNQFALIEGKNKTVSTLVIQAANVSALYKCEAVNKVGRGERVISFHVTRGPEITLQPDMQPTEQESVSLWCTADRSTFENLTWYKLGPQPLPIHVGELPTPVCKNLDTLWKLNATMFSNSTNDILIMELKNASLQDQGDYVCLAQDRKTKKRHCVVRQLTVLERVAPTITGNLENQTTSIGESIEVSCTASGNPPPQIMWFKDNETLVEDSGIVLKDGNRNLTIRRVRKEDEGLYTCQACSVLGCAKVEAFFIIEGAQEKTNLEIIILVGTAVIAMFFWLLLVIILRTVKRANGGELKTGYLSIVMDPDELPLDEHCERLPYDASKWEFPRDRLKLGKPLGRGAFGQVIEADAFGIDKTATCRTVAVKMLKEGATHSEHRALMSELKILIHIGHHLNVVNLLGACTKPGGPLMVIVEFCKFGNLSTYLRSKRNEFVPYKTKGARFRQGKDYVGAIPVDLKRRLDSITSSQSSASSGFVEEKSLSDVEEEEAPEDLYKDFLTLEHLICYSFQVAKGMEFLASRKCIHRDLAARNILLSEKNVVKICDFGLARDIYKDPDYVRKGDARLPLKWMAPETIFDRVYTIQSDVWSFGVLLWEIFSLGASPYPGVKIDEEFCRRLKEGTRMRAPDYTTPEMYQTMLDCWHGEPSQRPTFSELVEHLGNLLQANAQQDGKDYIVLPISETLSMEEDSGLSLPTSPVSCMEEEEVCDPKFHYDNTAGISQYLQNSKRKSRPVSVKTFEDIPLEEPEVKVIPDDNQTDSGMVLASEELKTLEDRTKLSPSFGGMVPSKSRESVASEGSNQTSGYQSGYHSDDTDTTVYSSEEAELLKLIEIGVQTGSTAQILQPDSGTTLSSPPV

[12] = activation of miR-122 Renilla sensor silencing – cell-based, Huh7 psiCHECK-miR122, Renilla luciferase, cherry-picked, dose response (AID 651956); type: functional;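 further: huh7 hepatoma cells stably carrying a psiCHECK-2 miR-122 sensor plasmid; renilla luciferase signal reporting endogenous miR-122 activity after 48 h compound exposure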
[13] = blockers of HIV-1 envelope-mediated cell-cell fusion – cherry-pick, dose response (AID 652057); type: functional, cell-based
[14] = viability loss in CEM21 cells – cell-based, CellTiter-Glo luminescence, cherry-picked, cytotoxicity control for viral fusion inhibitor project, dose response (AID 652042); type: functional;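 further: potency for signal decrease meaning cytotoxicity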
[15] = HIV-1 AD8 envelope cell-cell fusion blockers – cherry-pick, dose response (AID 652062); type: functional, cell-based;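 further: luciferase signal from cell-cell fusion driven by HIV-1 clade B AD8 Env; potency is for inhibitors of fusion seen as a drop in luminescence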
[16] = biological target: Protein disulfide-isomerase (Homo sapiens, UniProt P07237); assay: inhibition of PDI-mediated insulin reduction – biochemical, turbidity, dry powder samples, set 2, confirmation (AID 652146)

T1 sequence (P11940 whole entry, the tested form may be a part): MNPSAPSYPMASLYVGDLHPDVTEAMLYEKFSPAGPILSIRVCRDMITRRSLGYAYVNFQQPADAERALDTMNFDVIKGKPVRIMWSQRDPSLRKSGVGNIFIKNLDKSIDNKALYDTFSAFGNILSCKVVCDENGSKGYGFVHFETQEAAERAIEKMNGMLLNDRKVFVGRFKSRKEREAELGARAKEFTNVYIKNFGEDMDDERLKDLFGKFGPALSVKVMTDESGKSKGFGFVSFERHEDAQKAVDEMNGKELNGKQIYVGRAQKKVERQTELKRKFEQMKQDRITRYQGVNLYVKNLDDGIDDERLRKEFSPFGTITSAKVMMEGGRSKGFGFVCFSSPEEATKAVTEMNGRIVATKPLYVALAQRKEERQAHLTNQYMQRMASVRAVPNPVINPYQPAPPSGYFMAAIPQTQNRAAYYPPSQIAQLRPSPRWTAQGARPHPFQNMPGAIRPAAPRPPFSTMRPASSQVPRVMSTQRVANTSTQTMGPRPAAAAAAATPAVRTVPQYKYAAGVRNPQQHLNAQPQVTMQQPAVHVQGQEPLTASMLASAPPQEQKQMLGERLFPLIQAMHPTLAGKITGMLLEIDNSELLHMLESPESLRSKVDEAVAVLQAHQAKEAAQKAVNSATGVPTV

IC50 [1]: > 66 µM (inactive)
IC50 [2]: 1.45 µM (active)
IC50 [3]: > 66 µM (inactive)
SMILES: CCOC(=O)CCCCC(=O)c1[nH]c(O)nc1CSc1nc(O)c(C#N)c(-c2ccccc2)n1

EC50 [4]: > 67.1 µM (inactive)
SMILES: c1ccc([C@H]2CN3C(=N2)Sc2ccccc23)cc1

IC50 [2]: 1.86 µM (active)
SMILES: CCOC(=O)CCCCC(=O)c1[nH]c(O)nc1Cn1cnc2ccccc21

IC50 [5]: 1.62 µM (active)
IC50 [6]: 23.2 µM (inactive)
IC50 (Protein skinhead-1): > 100 µM (inactive)
IC50 [7]: 8.43 µM (active)
SMILES: COc1cccc(-c2cc(C(=O)Nc3nc4ccccc4s3)c3ccccc3n2)c1

Ki (Aurora kinase A): > 2 µM (inactive)
Ki (Aurora kinase B): > 2.51 µM (inactive)
Ki [11]: 0.0794 µM (active)
SMILES: O=C1Nc2ccccc2Nc2cc(-c3ccccc3O)ccc21

AC50 [16]: > 30 µM (inactive)
SMILES: CCOC(=O)C1(CCOC)CCCN(Cc2ccc(Cl)cc2)C1 (stereo not drawn)

Further lines, the compound ahead of its results:

SMILES: COC(=O)C1CCC(=O)N1C(c1ccc(OC)cc1)c1cc(OC)c(OC)c(OC)c1 (stereo not drawn)
IC50 [8]: > 67.5 µM (inactive)
IC50 (cells): > 67.5 µM (inactive)

SMILES: O=C1C=C(N2CC2)c2ccccc2C1=O
IC50 (Genome polyprotein): 29.7 µM (active)
IC50 [9]: 1.87 µM (active)
IC50 (Protein skinhead-1): > 100 µM (inactive)
CC50 [10]: 32.7 µM (active)

SMILES: CCNC(=O)C[C@@H]1CC[C@@H]2[C@@H](COc3ccc(NC(=O)C4CCCCC4)cc3C(=O)N2C)O1
AC50 [12]: 33.4 µM (active)

SMILES: C[C@H](CO)N1C[C@H](C)[C@H](CN(C)S(=O)(=O)c2ccccc2)Oc2ccc(NC(=O)Nc3ccc4c(c3)OCO4)cc2CC1=O
AC50 [13]: < 0.26 µM (active)
AC50 [14]: 58.4 µM (active)
AC50 [15]: 1.15 µM (active)
